Test results reported in US11370769B2, “TRPC5 inhibitors and methods of using same” (BOARD OF REGENTS OF THE UNIVERSITY OF NEBRASKA, priority 2017, dated 2022).

Biological target: T1, TRPC5 (Homo sapiens, UniProt Q9UL62)
T1 construct: expressed in transfected cells; host or cells: HEK293
T1 sequence (Q9UL62 1-973): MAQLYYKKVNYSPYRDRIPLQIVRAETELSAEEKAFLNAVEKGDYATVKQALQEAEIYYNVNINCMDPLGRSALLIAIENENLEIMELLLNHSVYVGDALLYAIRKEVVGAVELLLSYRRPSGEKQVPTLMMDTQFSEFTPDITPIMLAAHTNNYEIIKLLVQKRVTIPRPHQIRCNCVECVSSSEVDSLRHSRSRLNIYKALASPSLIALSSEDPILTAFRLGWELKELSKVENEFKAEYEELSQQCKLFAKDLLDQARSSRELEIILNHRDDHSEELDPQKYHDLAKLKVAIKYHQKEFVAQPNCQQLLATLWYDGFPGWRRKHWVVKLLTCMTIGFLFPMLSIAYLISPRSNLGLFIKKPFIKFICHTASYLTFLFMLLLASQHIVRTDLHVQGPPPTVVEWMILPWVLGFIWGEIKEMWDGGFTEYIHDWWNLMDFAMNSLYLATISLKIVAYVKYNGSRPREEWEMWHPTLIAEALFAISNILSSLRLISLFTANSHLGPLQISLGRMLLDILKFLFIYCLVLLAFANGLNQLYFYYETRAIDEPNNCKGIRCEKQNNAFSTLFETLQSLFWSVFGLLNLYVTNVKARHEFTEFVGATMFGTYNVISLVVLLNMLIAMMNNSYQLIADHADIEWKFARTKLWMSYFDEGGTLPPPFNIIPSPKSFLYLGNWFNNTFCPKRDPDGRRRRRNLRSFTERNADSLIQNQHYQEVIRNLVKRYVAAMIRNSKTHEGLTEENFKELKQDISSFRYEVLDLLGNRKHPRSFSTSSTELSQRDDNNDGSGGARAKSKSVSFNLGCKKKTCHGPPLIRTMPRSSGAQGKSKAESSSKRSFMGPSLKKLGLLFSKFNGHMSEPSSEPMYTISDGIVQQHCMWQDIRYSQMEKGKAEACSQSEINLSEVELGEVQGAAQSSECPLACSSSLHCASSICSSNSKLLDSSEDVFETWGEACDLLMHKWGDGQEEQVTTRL
Assay: HEK293 whole-cell patch clamp recording, TRPC5 inhibition assay
Type: cell-based
Details: for IC50: dose response, whole cell patch clamp, HEK cells expressing TRPC5, Rilu (3 μM)
Method: TRPC4, TRPC5, and TRPC6 inhibition assay: HEK293 whole-cell recordings Whole-cell patch clamp recording was performed 16 h after transfection. The bath solution contained (in mM): 140 NaCl, 5 KCl, 10 HEPES, 2 MgCl2, 2 CaCl2, 10 glucose with pH7.4 adjusted with NaOH. The intracellular solution contained (in mM): 140 KCl, 5 EGTA, 10 HEPES, 2 MgCl2 with pH7.4 adjusted with KOH. The patch pipettes were made using a two-step-protocol (P-97, Sutter Instrument). The pipette resistance was maintained between 4 to 8 MΩ. Once the whole-cell configuration was achieved, cells were clamped at a holding potential of −60 mV, and given a 50 ms ramp stimulation from −100 mV to +100 mV in every 5 s. All currents were filtered at 2 KHz (Axopatch 200B amplifier, Axon Instruments, Union City, Calif.) and digitized at 10 KHz for whole-cell recordings using Axon pCLAMP 10.4. Data were then analyzed using Clampfit 10.4 (Molecular Devices).
HEK293 cell culture and transfection: Transfection of HEK293 cells was carried out using Plus reagent (Invitrogen) and Lipofectamine (Invitrogen) according to standard protocols. For heterologous expression of TRP channels in HEK293 cells, 1 μg of TRPC5-GFP, TRPC6-GFP or TRPC4-GFP plasmids were used to transfect HEK293 cells in a 3.5 cm petri dish where cells were allowed to grow to 80% confluence. Electrophysiology was carried out after 16 h incubation.

Row | SMILES | block of riluzole-activated TRPC5 whole-cell current (30 μM, HEK cells expressing TRPC5) | IC50 [µM]
1 | c1ccc(Cn2c(NCc3ccco3)nc3ccccc32)cc1 [AC1903] | blocked | 14.7
2 | Cc1cc(N2CCCCC2)nc2ccccc12 [ML204, reference compound] | – | 13.6
